The record followed here is patent publication US20230087994A1, “TARGETED BIFUNCTIONAL DEGRADERS” (YALE UNIVERSITY, priority 2019, published 2023).

The structures appear in SMILES notation. Values joined by “and” are separate entries in the source; they are usually repeats but may differ in a detail not shown here. Equal values may be shown once.

Data set [1] concerns α-DNP antibody. As to the kind of experiment: Depletion of α-DNP antibody from serum in mice (ELISA). The conditions noted are these: i.p.; FIG. 79A. The format is in vivo.
The nature of data set [2]: Pharmacokinetics of DNP-GN3 in nude mice. The data set is classed as in vivo. The conditions noted are these: 1 mpk.
The nature of data set [3]: Tolerability of DNP-GN3 and DNP-OH3 in mice (body weight, AST, ALT). The data set is classed as in vivo. How it is done: FIGS. 93A-93C illustrate that DNP-GN3 and DNP-OH3 are not toxic to mice at all tested concentrations. FIG. 93A: mouse body weight following treatment with DNP-GN3 or DNP-OH3. Statistical differences were analyzed by T test. FIG. 93B: levels of aspartate transaminase (AST) in treated mice. Dashed lines represent the normal range. FIG. 93C: levels of alanine transaminase (ALT) in treated mice. Dashed lines represent the normal range.

Data set [4] concerns ASGPR on the surface of immortalized human hepatocyte HepG2 cells. As to the kind of experiment: DNP-GN3-mediated ternary complex formation: association of fluorescently labeled α-DNP antibody with HepG2 cells in suspension. The settings on record: for concentration of DNP-GN3 eliciting half-maximal fluorescence association: bell-shaped response, FIG. 86A. The format is cell-based. An excerpt: It was investigated whether DNP-GN3 could mediate the formation of a ternary complex between a fluorescently labeled α-DNP antibody and ASGPR on the surface of immortalized human hepatocyte HepG2 cells in suspension. […] The observed bell-shaped response to DNP-GN3 concentration is consistent with the prozone effect commonly observed in systems wherein a ternary complex is formed.

Data set [5] concerns HepG2 cells. As to the kind of experiment: DNP-GN3-mediated endocytosis of fluorescently labeled α-DNP antibody by adherent HepG2 cells. The format is cell-based, human. Here is the method:
It was next explored whether DNP-GN3 mediates the endocytosis of fluorescently labeled α-DNP antibody.
To explore the cellular mechanism of antibody uptake, cells were treated with chemical inhibitors of several endocytic pathways (FIG. 89).

In data set [6] the test system is PC3 cells. As to the kind of experiment: Human prostate cancer PC3 tumor growth in mice. The format is in vivo. The conditions noted are these: control and comparator arms; FIG. 138. How it is done: The ability of MIF-GN3 to mediate the depletion of MIF in a therapeutically relevant disease model was investigated. […] An experiment was conducted to determine whether the bifunctional molecule MIF-GN3 can deplete sufficient human MIF from serum to slow PC3 tumor growth. Mice were injected with an aliquot of PC3 cells, and the size of the resultant tumors as well as the levels of human MIF in serum were monitored over five weeks. […] Five weeks after the initial PC3 cell injection, the first of the mice reached maximal tumor size ([…]) and was sacrificed (FIG. 138). […] The decrease in human MIF levels mediated by MIF-GN3 is consistent with a mechanism of action in which MIF-GN3 mediates the depletion and degradation of circulating MIF protein. While the α-MIF antibody would not necessarily be expected to decrease the levels of human MIF, it is possible that the antibody mediates MIF neutralization in a manner which masks its signal as determined by ELISA. Alternatively, the α-MIF antibody may mediate depletion or degradation of huMIF by some endocytic mechanism. Another possible explanation is that the α-MIF antibody decrease serum levels of active human MIF to such an extent at early time points that PC3 cells proliferate much more slowly, and therefore fewer cells are actively secreting human MIF.
Mice were sacrificed when their tumor volumes reached 1000 mm^3. […] At this same time point, less than 25% of the mice in any other arm had survived.

For data set [7], the system named is HepG2 cells. Description: Subcellular localization of α-DNP antibody endocytosed via DNP-GN3 (microscopy). The data set is classed as cell-based, human. The settings on record: after 12 hours.
The test system of data set [8] is α-DNP antibody. As to the kind of experiment: Depletion of α-DNP antibody from serum in mice (ELISA). The format is in vivo. The conditions noted are these: for serum α-DNP antibody levels compared to PBS: initial 200 μg monoclonal antibody, 21 days, nude mice. How it is done: FIG. 94 illustrates that serum levels of α-DNP antibody decrease more rapidly following repeated treatment with DNP-GN3. Serum antibody levels were measured using an ELISA assay. Each experimental group contained three mice. Statistical differences in experiments involving in vivo depletion of α-DNP antibody were assessed by repeated measures two-way ANOVA with Tukey's tests for post-hoc comparison of simple effects between each of the treatment groups and PBS.
Single doses of DNP-GN3 were also found to be efficacious at mediating α-DNP antibody depletion, albeit less effectively than daily dosing (FIG. 96). […] Therefore, it was concluded that DNP-GN3 is able to mediate the depletion of a monoclonal antibody from serum, and functions across a wide range of target protein concentrations and dosing regimens.
DNP-GN3 was also found to be efficacious in depleting polyclonal α-DNP antibody from serum collected from mice immunized with DNP-keyhole limpet haemocyanin (KLH) (FIG. 97). […] Thus, the small molecule DNP-GN3 is not restricted in function to only monoclonal mouse antibodies, but is also effective at removing polyclonal α-DNP antibodies from circulation in mice.
For orientation: In an ELISA, binding on a coated surface is turned into a signal by an enzyme label.

Data set [9] concerns HepG2 cells. As to the kind of experiment: Western blot of α-DNP antibody degradation in HepG2 cells treated with DNP-GN3. The settings on record: anti-Alexa Fluor 488, FIG. 92A. The data set is classed as cell-based, human. How it is done:
In addition, western blotting with an antibody directed to Alexa Fluor 488 was used to determine if endocytosed fluorescently labeled α-DNP antibodies are degraded in vitro. […] Signal arising from Alexa Fluor 488 in cell lysates was associated with only full-length antibody after two hours of incubation. After six hours, a lower molecular weight fluorophore-associated protein fragment between 37 and 50 kDa began to appear. An additional protein fragment with a molecular weight between 25 and 37 kDa was observed after 24 hours. […] Together with the above immunofluorescence studies showing the colocalization of α-DNP antibody-derived fluorescence with lysosomes, these studies support that α-DNP antibody degradation is mediated by lysosomal proteases. Lysosomal degradation is further consistent with a mechanism dependent on ASGPR.
(In western blotting, separated proteins are transferred to a membrane and probed.)

For `CC(=O)NC1C(OCCOCCOCCNC(=O)CCOCC(COCCC(=O)NCCOCCOCCOC2OC(CO)C(O)C(O)C2NC(C)=O)(COCCC(=O)NCCOCCOCCOC2OC(CO)C(O)C(O)C2NC(C)=O)NC(=O)CNC(=O)COCCOCCOCCNc2ccc([N+](=O)[O-])cc2[N+](=O)[O-])OC(CO)C(O)C1O` (centres unmarked) [DNP-GN3], the “degradation of injected anti-DNP IgG antibodies in mouse serum” value in [1] is “can induce degradation”. Also, in [2], the “bioavailability via IP dosing” value is “bioavailable”. Further, the half-life in serum in data set [2] (IP) is 40.2 min. The “time at which maximal serum concentration is reached” value in data set [2] (IP) is recorded as 1 h. The toxicity to mice entry in data set [3] (all tested concentrations, FIGS. 93A-93C) is “not toxic”. In data set [3] (up to 100 mpk, FIGS. 93A-93C), the “body weight or serum liver enzyme levels, control versus treatment groups” value is given as “no significant differences”. Further, in [3] (up to doses of 100 mpk), the tolerability entry is listed as “well-tolerated”. The “concentration of maximal ternary complex formation” value in [4] (DNP-GN3) was 20 nM and 40 nM. The entries for the “concentration of DNP-GN3 eliciting half-maximal fluorescence association” value in [4] (higher concentration (prozone)) and in data set [4] (lower concentration) were 0.12 µM and 0.0074 µM, respectively. Besides, in data set [5] (FIG. 87A), the “intracellular fluorescence of adherent HepG2 cells” value was “dependent on the concentration of both DNP-GN3 and α-DNP antibody”. Also, the “uptake of α-DNP antibody” value in [5] (target protein at 1 nM) is listed as “not effective”. For the same compound, the PC3 tumor growth entry in [6] was “not found to decrease tumor growth”. Moreover, the “colocalization of endocytosed α-DNP antibody with early endosome marker EEA1” value in [7] (FIG. 91A) is given as “No colocalization”. Besides, the “colocalization of α-DNP antibody with lysosome membrane protein LAMP2” value in data set [7] (FIG. 91B) is on record as “strong colocalization”. In addition, the entries for the “α-DNP antibody depleted from serum” value in [8] (24 hours after a single dose of 1 mpk (vehicle 24%)) and in [8] (24 hours after a single dose of 10 mpk (vehicle 24%)) were 52% and 34%, respectively. Moreover, the “serum α-DNP antibody levels compared to PBS” value in data set [8] (daily 1 mpk) and in [8] (twice-daily 1 mpk) was “significantly reduced” each time. Further, the “serum α-DNP antibody levels” value in data set [8] (daily treatment, initial antibody dose 500 μg) is listed as “significant decrease”. For the same compound, the “polyclonal α-DNP antibody removed from serum compared to PBS” value in [8] (daily treatment, mice immunized with DNP-KLH, each time point) is on record as “significantly more polyclonal α-DNP antibody was removed”. In data set [8] (single dose of 100 mpk), the “α-DNP antibody depletion from serum” value is “Significant depletion”. In addition, the “fluorophore accumulation in lysates of HepG2 cells” value in [9] is “accumulate fluorophore in a time- and DNP-GN3-dependent manner”.
